Experimental findings from patent publication US7722890B2, “Synthetic anti-Candida albicans oligosaccharide based vaccines” (Theracarb, Inc., priority 2002, dated 2010) are described below.

One test concerns MAb C3.1 (IgG3). Nature of the test: competitive inhibition ELISA: binding of IgG MAb C3.1 to C. albicans mannan extract. Further details: species or system mouse. On the procedure: These monoclonal antibodies are IgM B6.1 and IgG C3.1. The affinity of these monoclonal antibodies for the synthesized propyl glycosides was determined in a competitive inhibition ELISA. The monoclonal antibodies, MAb B6.1 (IgM) and MAb C3.1 (IgG3) were produced as concentrated tissue culture supernatants and diluted ˜1:40,000 (B6.1) and ˜1:2000 (C3.1). C. albicans mannan obtained by 2-mercaptoethanol extraction of whole cells without subsequent affinity fractionation^27 was dissolved in PBS (10 μg/mL) and the solution was used to coat 96 well ELISA plates (100 μL, 18 h at 4° C.). The plate was washed five times with PBST containing Tween 20, 0.05% v/v) and blocked for 1 h at room temperature (2% BSA PBS, 100 μL). The monoclonal antibodies were mixed with inhibitor dissolved in PBST at concentrations in the range between 0.1 μM to 1 mM, and the resulting solutions were added to the coated microtitre plate in triplicate and incubated at room temperature for 18 h. The plate was washed with PBST (5×), and goat anti-mouse (IgG or IgM) antibody conjugated to horseradish peroxidase (diluted 1:2000, Kirkegaard and Perry Lab) in PBST (100 μL) was added and incubated for 1 h at room temperature. […]
In general terms: An ELISA detects its analyte on a solid surface through an enzyme-linked reagent.

Test [1] concerns IgM monoclonal antibody B6.1. Nature of the test: competitive inhibition ELISA: binding of IgM MAb B6.1 to C. albicans mannan extract. Further details: species or system mouse. The following applies: FIG. 7. On the procedure: These monoclonal antibodies are IgM B6.1 and IgG C3.1. The affinity of these monoclonal antibodies for the synthesized propyl glycosides was determined in a competitive inhibition ELISA. The monoclonal antibodies, MAb B6.1 (IgM) and MAb C3.1 (IgG3) were produced as concentrated tissue culture supernatants and diluted ˜1:40,000 (B6.1) and ˜1:2000 (C3.1). C. albicans mannan obtained by 2-mercaptoethanol extraction of whole cells without subsequent affinity fractionation^27 was dissolved in PBS (10 μg/mL) and the solution was used to coat 96 well ELISA plates (100 μL, 18 h at 4° C.). The plate was washed five times with PBST containing Tween 20, 0.05% v/v) and blocked for 1 h at room temperature (2% BSA PBS, 100 μL). The monoclonal antibodies were mixed with inhibitor dissolved in PBST at concentrations in the range between 0.1 μM to 1 mM, and the resulting solutions were added to the coated microtitre plate in triplicate and incubated at room temperature for 18 h. The plate was washed with PBST (5×), and goat anti-mouse (IgG or IgM) antibody conjugated to horseradish peroxidase (diluted 1:2000, Kirkegaard and Perry Lab) in PBST (100 μL) was added and incubated for 1 h at room temperature. The plate was washed with PBST (5×), 3,3′,5,5′-tetramethylbenzidine (TMB, 100 μL, Kirkegaard and Perry Lab) was added, and after 2 minutes the colour reaction was stopped by the addition of 1M phosphoric acid (100 μL). Absorbance was read at 450 nm and percent inhibition was calculated relative to wells containing antibody without inhibitor, and the concentration of ligand that gives 50% inhibition is quoted as an IC50 value.

Regarding `CCCO[C@@H]1O[C@H](CO)[C@@H](O)[C@H](O)[C@@H]1O[C@@H]1O[C@H](CO)[C@@H](O)[C@H](O)[C@@H]1O` [compound 17], the “affinity / inhibition curve for the IgG antibody” value with MAb C3.1 (IgG3) (FIG. 8) was “flattened binding curve”. For the same compound, the “affinity of IgM antibody B6.1 for propyl mannosides” value (from here on “affinity … for propyl mannosides”) in test [1] is recorded as “surprisingly high affinity”. Turning to “propyl (1-thio-β-D-mannopyranosyl)-(1→2)-β-D-mannopyranotrioside [compound 32]”, the “affinity … for propyl mannosides” value in test [1] was “falls between the tri and tetrasaccharide in affinity”. In the case of `CCCOC1OC(CO)C(O)C(O)C1OC1OC(CO)C(O)C(O)C1OC1OC(CO)C(O)C(O)C1O` (centres unmarked) [compound 18], in the test with MAb C3.1 (IgG3) (FIG. 8 vs FIG. 7), the “affinity for the IgG antibody relative to the IgM MAb” value was “two fold”. Besides, the “affinity … for propyl mannosides” value in test [1] is recorded as “surprisingly high affinity”.
